Reference: patent US6384188B1, “Lipopolysaccharide-binding and neutralizing peptides” (Dana-Farber Cancer Institute, Inc., priority 1993, dated 2002)
Bridge positions count the residues as written; N and C are the ends. Peptide text beside a SMILES is read from it. * marks the point of attachment. Biotin = O=C1N[C@H]2[C@H](CS[C@H]2CCCCC(=O)*)N1

Legend:
[1] = LPS binding as determined by ELISA (general description); set-up: species or system E. coli
Source text: (§1) In a still further preferred embodiment, the present invention provides for peptides which effectively bind to LPS and are constrained to adopt a circular conformation by an intramolecular bridge. In this context, the circular conformation can be brought about by any one of a number of intramolecular bridges. Preferably, the peptide may incorporate two cysteine residues between which a disulfide bond is formed by an oxidation reaction. Alternatively, the two cysteines may be linked through a homo-bifunctional cross-linking reagent, such as a bis-maleimide. Particularly preferred are the cyclic peptides comprising amino acids 31 to 52 and amino acids 38 to 45 of LALF, each stabilized by a disulfide bond formed between two cysteine residues, producing a cyclic conformation (FIG. 2). […] This defines a minimal LPS-binding domain to be the peptide spanning amino acids 38 to 45 of LALF. […] Thus, particularly preferred are also the peptides spanning amino acids 90 to 101 and amino acids 90 to 97 of LBP (FIG. 3). […] This defines a second minimal LPS binding domain to be the peptide spanning amino acids 90 to 97 of LBP. […] Particularly preferred are the peptides spanning amino acids 90 to 97 and amino acids 90 to 101 of BPI (FIG. 4). This defines a third minimal LPS-binding domain to be the peptide spanning amino acids 90 to 97 of BPI.

[2] = test system: LALF binding to immobilized lipid A; experiment: Competition of LALF:lipid A binding by peptides (ELISA)
Procedure: (§2) To investigate the specificity of peptides in binding lipid A and LPS, competition experiments with known endotoxin binding proteins such as LALF and LBP and the antibiotic polymyxin B are carried out. Thus an ELISA plate (NUNC, Polysorp 96U) is coated for 90 min. at 37° C. with 100 μl lipid A in PBS (0.25-0.3 μg/ml) or lipopolysaccharide in PBS (0.25-0.3 μg/ml). All further steps are done at room temperature. After washing and blocking (10 min.) with PBS/0.1% Tween, the solid phase is incubated for 1 hr with 100 μl or increasing amounts (0.01 μg/ml-100 μg/ml in PBS/0.1% Tween) of unlabelled or biotin-labelled peptides mixed with an endotoxin binding protein (LALF or LBP; 0.2 μg/ml in PBS/0.1% Tween). After washing with PBS/0.1% Tween, the ELISA plate is incubated for 45 min. with 100 μl of a rabbit antiserum against LALF or LBP, respectively. After washing with PBS/0.1% Tween the ELISA plate is incubated with 100 μl anti-rabbit antibody conjugated to alkaline phosphatase (SIGMA; 1:10000 diluted in PBS/0.1% Tween) and washed with PBS/0.1% Tween and 100 mM Tris pH 9.5. p-Nitrophenyl-phosphate (2 mg/ml in 100 mM Tris pH 9.5) is used as a substrate for alkaline phosphatase. The ELISA is read at 405 nm.

[3] = test system: biotin-labelled LBP-14 binding to immobilized lipid A; experiment: Competition of LBP14:lipid A binding by peptides and proteins (ELISA); details: unlabelled competitor in increasing amounts, biotin-LBP-14 1 μg/ml; FIG. 16; very similar result with LALF-14
Procedure: An ELISA plate (NUNC, Polysorp 96U) is coated for 90 min. at 37° C. with 100 μl lipid A in PBS (0.2-0.3 μg/ml). All further steps are done at room temperature. After washing and blocking (10 min.) with PBS/0.1%. Tween, the solid phase is incubated for 1 hr with 100 μl of increasing amounts (0.01 μg/ml-10 μg/ml) of unlabelled peptides or proteins mixed with a biotin-labelled peptide (1 μg/ml in PBST/0.1% Tween). After washing with PBS/0.1% Tween, 100μl streptavidin conjugated to alkaline phosphatase (Boehringer Mannheim GmbH, 1:10000 diluted in PBS/0.1% Tween) is added to the wells. This incubation is followed by washing with PBS/0.1% Tween and 100 mM Tris pH 9.5. p-Nitrophenyl-phosphate (2 mg/ml in 100 mM Tris pH 9.5) is used as a substrate for alkaline phosphatase. The ELISA is read at 405 nm.
CD14 is used to compete the peptide-lipid A binding. The principle of such a binding assay is the same as for the LALF- or LBP-lipid A competition assays in which a constant amount of detectable peptide or protein is competed by an increasing amount of another peptide or protein. Instead of detecting LALF, bound biotin-labelled peptide is detected with streptavidin conjugated to alkaline phosphatase, and the labelled peptide concentration is kept constant while the unlabelled peptide or protein amount is increased. […] A very similar result is observed when LALF-14 is used instead of LBP-14.

[4] = ELISA binding of biotinylated peptides to immobilized lipid A; details: biotinylated peptide 0.1-10 μg/ml on immobilized lipid A; FIG. 8, 9
Procedure: The lipid A-binding activities of the peptides are shown in an ELISA format as follows. An ELISA plate (NUNC, Polysorp 96U) is coated for 90 minutes at 37° C. with 100 μl lipid A in PBS (0.25-1 μg/ml). All further steps are done at room temperature. After washing and blocking (10 min.) with PBS/0.1% Tween, the solid phase is incubated for 1 hour with 100 μl of increasing amounts (0.1 μg/ml-10 μg/ml) of purified synthetic peptides (dissolved in PBST) labelled at the N-terminus with biotin. After washing with PBS/0.1% Tween, the bound peptides are incubated for 45 min. with 100 μl streptavidin conjugated to alkaline phosphatase (Boehringer Mannheim GmbH; 1:10000 diluted in PBS/0.1% Tween), followed again by washing with PBS/0.1% Tween and 100 mM Tris pH 9.5. p-Nitrophenylphosphate (2 mg/ml in 100 mM Tris pH 9.5) is used as a substrate for alkaline phosphatase. The ELISA is read at 405 nm.
To investigate the importance of the constrained conformation for high affinity peptide-lipid A binding, binding activity of cyclic and the corresponding linear peptides is compared.

[5] = Chromogenic Limulus amebocyte lysate test; type: biochemical, E. coli; details: peptides 0.1-10 μg/ml preincubated with LPS 15 min at 37° C.; FIG. 19
Procedure: (§3) The Limulus amebocyte Lysate test (gelling assay; sensitivity 0.125 EU/ml) and the Chromogenic Limulus amebocyte Lysate test (sensitivity 0.06 EU/ml) are performed according to the manufacturer's instruction (Bio*Whittaker, Walkersville, Md.) using E. coli 055:B5 lipopolysaccharide. For neutralisation of LPS, peptides (0.1-10 μg/ml) and LPS are incubated for 15 min. at 37° C. and then added to the Limulus lysate. […] The chromogenic assay allows quantification of the lipopolysaccharide neutralizing capacity of the peptides.

[6] = test system: LALF binding to immobilized lipid A; experiment: Influence of serum on the competition of LALF:lipid A binding by peptide; details: 100 μg/ml peptide, 10% fetal calf serum; FIG. 18
Procedure: as §2, with “nm. […]” for “nm.”

[7] = test system: monocytes (LPS Re-LPS F515 induced TNF release); experiment: Inhibition of LPS-mediated TNF release by monocytes; type: cell-based, human; details: peptide 10 μg/ml preincubated with LPS; TNF by ELISA; FIG. 20
Procedure: Monocytes are purified with a ficoll gradient (d=1.077) from whole blood by centrifugation for 20 min. at 2200 rpm at room temperature. Ficoll is removed by washing 3 times with PBS. Purified monocytes are counted and diluted to 2×10^6 cells/900 μl in medium (RPMI+) or medium with 0.1%-10% human serum. For TNF induction, 2×10^6 monocytes (in 900 μl medium or medium with serum) and 100 μl of LPS (Re-LPS F515; 0.1 ng/ml-10 ng/ml) or mixtures of LPS with peptides (10 μg/ml) (preincubated for 15 min. at 37° C.) are incubated in a 24 well plate (NUNC) for 2 to 5 hr. The supernatant is taken off and spun twice for 2 min. at 1500 rpm, once for 5 min. at 15000 rpm and stored at −20° C. for TNF determination. The induced TNF is assayed by ELISA according to the manufacturer's instruction (BioSource International, California) using a 50 μl sample of thawed supernatant.

[8] = Limulus amebocyte lysate test (gelling assay); type: biochemical, E. coli; details: peptides 0.1-10 μg/ml preincubated with LPS 15 min at 37° C.; FIG. 19
Procedure: as §3

[9] = test system: LBP binding to immobilized lipid A; experiment: Competition of LBP:lipid A binding by peptides (ELISA); details: 100 μg/ml peptide; FIG. 15
Procedure: as §2
The ability of the peptides to compete with LBP for binding to LPS is determined in the same way as in Example 5, except that LALF is replaced with LBP (see FIG. 15). […]

[10] = LPS binding as shown by ELISA (general description); details: FIG. 2-7 peptides
Source text: as §1

[11] = Binding of fluorescein-labelled LPS to biotinylated peptides immobilized via streptavidin; set-up: species or system Salmonella enteriditis; details: peptide 1 or 10 μg/ml on streptavidin plate, FITC-LPS 0.5 μg/ml; FIG. 12
Procedure: To investigate the potential use of multimeric peptides for increasing the binding to LPS, individual peptides are coated on an ELISA plate to high surface concentrations. Immobilization is performed by first coating the plate with strepravidin and then binding the peptides via their N-terminal biotin groups. Thus, 100 μl streptavidin (Boehringer Mannheim GmbH; 10 μg/ml in PBS) is used for coating followed by washing, blocking (10 min.) with PBS/0.1% Tween and a 30 min. incubation with 100 μl of purified synthetic peptides (1 μg/ml or 10 μg/ml in PBST) labelled at the N-terminus with biotin. After washing with PBS/0.1% Tween the peptides are incubated for 1 hr With FITC-labelled LPS (SIGMA; Salmonella enteriditis; 0.5 μg/ml in PBS/0.1% Tween). After washing with PBS/0.1% Tween, the ELISA plate is incubated with 100 μl of an anti-FITC antibody conjugated to alkaline phosphatase (SIGMA; 1:2500 diluted in PBS/0.1% Tween) and washed with PBS/0.1% Tween and 100 mM Tris pH 9.5. p-Nitrophenyl-phosphate (2 mg/ml in 100 mM Tris pH 9.5) is used as a substrate for alkaline phosphatase. The ELISA is read at 405 nm. All steps are done at room temperature.

[12] = peptide 0.01-100 μg/ml, LALF 0.2 μg/ml, FIG. 13, 14

Question: For `CC(C)C[C@@H]1NC(=O)[C@H](CCCNC(=N)N)NC(=O)[C@H](CCCNC(=N)N)NC(=O)[C@H](Cc2ccccc2)NC(=O)[C@H]([C@@H](C)O)NC(=O)[C@@H](NC(=O)CCCC[C@@H]2SC[C@@H]3NC(=O)N[C@@H]32)CSSC[C@@H](C(=O)O)NC(=O)[C@H](CCCCN)NC(=O)[C@H](Cc2c[nH]c3ccccc23)NC(=O)[C@H](CCCCN)NC1=O` [LALF-10] (Biotin-CTFRRLKWKC-OH; disulfide 1-10), which “binding to E. coli EH 100 LPS as determined by ELISA” value [1] is on record?
Answer: Both bind lipid A and, additionally, two different types of LPS-molecules

Question: With lysozyme as the compound, how does the “competition with LALF for lipid A binding” value ([2]; at 100 μg/ml peptide, FIG. 14) read?
Answer: 10%

Question: And the “competition with LALF for lipid A binding” value [2, 12]?
Answer: not able to compete with LALF

Question: And the “competition of LBP-14 binding to lipid A” value [3]?
Answer: background determined by lysozyme as competitor

Question: With “Biotin-Z-C-K-W-K-I-R-K-F-S-C-N (Z=β-alanine) [MS-22]” as the compound, how does the “lipid A-binding activity (ELISA)” value [4] read?
Answer: binds lipid A clearly above background level and with a similar activity to LBP-10-1, but weaker than MS-21

Question: Which results are given for “I-K-T-K-K-F-L-K-K-T (IKTKKFLKKT) [PolP-1]”?
Answer: inhibition of the chromogenic Limulus amebocyte lysate assay [5]: up to 25%; competition with LALF for lipid A binding in the presence of 10% serum [6]: only inhibit slightly above background; competition with LALF for lipid A binding [2, 12]: hardly competes with LALF for lipid A binding; competition of LBP-14 binding to lipid A [3]: only slightly above the background determined by lysozyme as competitor

Question: With polymyxin B as the compound, how does the “inhibition of TNF release” value [7] read?
Answer: 95%

Question: And the “inhibition of LPS-mediated gelling of Limulus amebocyte lysate” value [8]?
Answer: inhibit the assays

Question: What about the “competition with LALF for lipid A binding in the presence of 10% serum” value [6] of the same compound?
Answer: also inhibiting in the presence of 10% serum

Question: And the “competition with LALF for lipid A binding” value [2, 12]?
Answer: able to displace LALF almost completely from immobilized lipid A

Question: And the “competition of LBP-14 binding to lipid A” value [3]?
Answer: only weak competition activity at the highest concentration used

Question: And the “competition with LBP for lipid A binding” value [9]?
Answer: not able to compete with LBP for binding to lipid A

Question: For `CC[C@H](C)[C@@H]1NC(=O)[C@H](CCCNC(=N)N)NC(=O)[C@H](Cc2ccc(O)cc2)NC(=O)[C@H](Cc2c[nH]cn2)NC(=O)[C@@H](N)CSSC[C@@H](C(=O)O)NC(=O)[C@H](Cc2c[nH]c3ccccc23)NC(=O)[C@H](Cc2ccccc2)NC(=O)[C@H](CCCCN)NC(=O)CNC(=O)[C@H](CCCCN)NC(=O)[C@H](Cc2ccc(O)cc2)NC(=O)[C@H](CCCCN)NC(=O)[C@H](Cc2c[nH]c3ccccc23)NC(=O)[C@H](CCCCN)NC(=O)[C@H](CC(C)C)NC(=O)[C@H](CCCNC(=N)N)NC(=O)[C@H](CCCNC(=N)N)NC(=O)[C@H](Cc2ccccc2)NC(=O)[C@H]([C@@H](C)O)NC(=O)[C@@H]2CCCN2C(=O)[C@H](CCCCN)NC1=O` [amino acids 31 to 52 of LALF] (H-CHYRIKPTFRRLKWKYKGKFWC-OH; disulfide 1-22; N-terminus and C-terminus assumed), which “binding to E. coli EH 100 LPS as determined by ELISA” value [1] is on record?
Answer: Both bind lipid A and, additionally, two different types of LPS-molecules

Question: With “amino acids 90 to 97 of BPI: peptide spanning amino acids 90 to 97 of BPI, cyclic by disulfide bond between two cysteines” as the compound, how does the “binding to LPS as shown by ELISA” value [10] read?
Answer: able to bind LPS

Question: Which “lipid A-binding activity (ELISA)” value [4] does the source give for “Biotin-Z-K-C-F-T-R-R-A-K-W-R-C (Z=β-alanine) [MS-21]” here?
Answer: binds lipid A weaker than LALF-14 and LBP-14, but slightly better than BPI-14

Question: What about the “binding of FITC-labelled LPS to immobilized peptide” value [11] of the same compound?
Answer: highest binding affinity to LPS

Question: What about the “competition with LALF for lipid A binding” value ([2]; at 100 μg/ml peptide, FIG. 14) of the same compound?
Answer: ~80%
